The compounds below were run against T1, human Syk (GST-Syk) (Homo sapiens, UniProt P43405) (assay: Syk tyrosine kinase inhibitory assay). Conditions: Table 11; read-out: Activity grade.
T1 construct: A cDNA fragment encoding human Syk openreading frame was cloned; made in house; host or cells: Sf21 insect cells (baculovirus, transfer vector pAcG2T)
Format: biochemical
Outline: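 Readout: streptavidin-captured biotin-AL peptide probed with europium-4G10 anti-phosphotyrosine, time-resolved fluorescence (ex 340/em 615 nm). Reaction ran 1 h at room temperature with 30 μM ATP, 3 μM peptide, 0.65 nM Sf21-expressed GST-Syk and 0.25% DMSO, pH 8.0.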

IC50 [nM]	SMILES
500 to 2000	COc1ccc(-c2cc3nccn3c(Nc3ccc(CCN4CCOCC4)cc3)n2)cc1OC [Example 12-1]
< 500	COc1ccc(-c2cc3nccn3c(Nc3ccc4[nH]ncc4c3)n2)cc1OC [Example 12-2]
< 500	COc1ccc(-c2cc3nccn3c(Nc3ccccn3)n2)cc1OC [Example 12-3]
< 500	COc1ccc(Nc2nc(-c3ccc(OC)c(OC)c3)cc3nccn23)cn1 [Example 12-4]
500 to 2000	COC(=O)c1ccc(Nc2nc(-c3ccc(OC)c(OC)c3)cc3nccn23)s1 [Example 12-5]
500 to 2000	CCOc1ccc2nc(Nc3nc(-c4ccc(OC)c(OC)c4)cc4nccn34)sc2c1 [Example 12-6]
< 500	COc1ccc(-c2cc3nccn3c(Nc3cccnc3)n2)cc1OC [Example 12-7]
< 500	COc1ccc(-c2cc3nccn3c(Nc3ccncc3)n2)cc1OC [Example 12-8]
< 500	COc1ccc(-c2cc3nccn3c(Nc3ccc(Br)cn3)n2)cc1OC [Example 12-9]
< 500	COc1ccc(-c2cc3nccn3c(Nc3ccccc3)n2)cc1O [Example 12-10]
< 500	COc1ccc(-c2cc3nccn3c(Nc3cccc(Cl)c3)n2)cc1OC [Example 12-11]
< 500	COc1ccc(-c2cc3nccn3c(Nc3ccc(Br)cc3)n2)cc1OC [Example 12-12]
500 to 2000	COc1ccc(-c2cc3nccn3c(Nc3cccc(C(F)(F)F)c3)n2)cc1OC [Example 12-13]
< 500	COc1ccc(-c2cc3nccn3c(Nc3cc(OC)c(OC)c(OC)c3)n2)cc1OC [Example 12-14]
< 500	COc1ccc(Nc2nc(-c3ccc(OC)c(OC)c3)cc3ncnn23)cc1 [Example 12-15]
< 500	COc1cc(-c2cc3nccn3c(Nc3ccccc3)n2)ccc1OCCCN1CCOCC1 [Example 12-16]
< 500	COc1ccc(-c2cc3nccn3c(Nc3ccccc3)n2)cc1OC(C)=O [Example 12-17]
500 to 2000	COc1cc(-c2cc3nccn3c(Nc3ccccc3)n2)ccc1OCc1ccccc1 [Example 12-18]
< 500	COc1cc(-c2cc3nccn3c(Nc3ccccc3)n2)ccc1O [Example 12-19]
< 500	CCOCCOc1ccc(-c2cc3nccn3c(Nc3ccccc3)n2)cc1OC [Example 12-20]
500 to 2000	c1ccc(Nc2nc(-c3ccc4c(c3)OCCO4)cc3nccn23)cc1 [Example 12-21]
500 to 2000	c1ccc(Nc2nc(-c3ccc4c(c3)OCO4)cc3nccn23)cc1 [Example 12-22]
< 500	CCOc1ccc(-c2cc3nccn3c(Nc3ccccc3)n2)cc1OCC [Example 12-23]
500 to 2000	CCOCCOc1ccc(-c2cc3nccn3c(Nc3ccccc3)n2)cc1OCCOCC [Example 12-24]
< 500	COc1ccc(-c2cc3nccn3c(Nc3ccccc3)n2)cc1OCCN1CCOCC1 [Example 12-25]
< 500	COc1cc(-c2cc3nccn3c(Nc3ccccc3)n2)ccc1OCCN1CCOCC1 [Example 12-26]
2000 to 10000	COc1ccc(-c2cc3nccn3c(Nc3ccccc3)n2)cc1OCc1ccccc1 [Example 12-27]
< 500	CCOCCOc1cc(-c2cc3nccn3c(Nc3ccccc3)n2)ccc1OC [Example 12-28]

Same assay, conditions: Table 17; IC50 classes; read-out: Activity grade

IC50 [nM]	SMILES
< 500	COc1ccc(-c2cc3nccn3c(Nc3cc(N)ccc3C(N)=O)n2)cc1OC [Example 11]

Same assay, conditions: in vitro; compounds as yielded by solid phase synthesis, purity about 40 to 90%; read-out: Activity grade (IC50 class)

IC50 [nM]	SMILES
< 500	CCCCNS(=O)(=O)c1cccc(Nc2nc(-c3ccc(OC)c(OC)c3)cc3nccn23)c1 [Example 11-73]
< 500	COc1ccc(-c2cc3nccn3c(Nc3ccc(NCCN(C)C)cc3)n2)cc1OC [Example 11-74]
< 500	COc1ccc(Nc2nc(-c3ccc(OC)c(OC)c3)cc3nccn23)c(C(=O)O)c1 [Example 11-75]
< 500	COc1ccc(-c2cc3nccn3c(Nc3ccc(S(N)(=O)=O)cc3)n2)cc1OC [Example 11-76]
< 500	COc1ccc(-c2cc3nccn3c(Nc3ccccc3C(=O)O)n2)cc1OC [Example 11-77]
< 500	COc1ccc(-c2cc3nccn3c(Nc3ccc(I)cc3C(N)=O)n2)cc1OC [Example 11-78]
< 500	COc1ccc(-c2cc3nccn3c(Nc3cccc(N(C)C)c3)n2)cc1OC [Example 11-81]
< 500	COc1ccc(-c2cc3nccn3c(Nc3ccc(NCCN4CCOCC4)cc3)n2)cc1OC [Example 11-82]
500 to 2000	COc1ccc(Nc2nc(-c3ccc(OC)c(OC)c3)cc3nccn23)cc1NC(=O)CN1CCOCC1 [Example 11-83]
< 500	COc1ccc(Nc2nc(-c3ccc(OC)c(OC)c3)cc3nccn23)cc1OC [Example 11-84]
< 500	COc1ccc(-c2cc3nccn3c(Nc3ccc(Br)cc3C(=O)O)n2)cc1OC [Example 11-85]
< 500	COC(=O)c1cc(Br)ccc1Nc1nc(-c2ccc(OC)c(OC)c2)cc2nccn12 [Example 11-86]
< 500	COc1ccc(-c2cc3nccn3c(Nc3ccc(Br)cc3F)n2)cc1OC [Example 11-87]
< 500	COc1ccc(-c2cc3nccn3c(Nc3ccc(Br)cc3Cl)n2)cc1OC [Example 11-88]
< 500	COc1ccc(-c2cc3nccn3c(Nc3ccc4[nH]c(=O)[nH]c4c3)n2)cc1OC [Example 11-89]
< 500	COc1ccc(-c2cc3nccn3c(Nc3ccc(NCCCN4CCOCC4)cc3)n2)cc1OC [Example 11-90]
< 500	COc1ccc(-c2cc3nccn3c(Nc3ccc(OCCN4CCOCC4)cc3)n2)cc1OC [Example 11-91]
< 500	COc1ccc(Nc2nc(-c3ccc(OC)c(OC)c3)cc3nccn23)cc1O [Example 11-92]
< 500	COc1ccc(Nc2nc(-c3ccc(OC)c(OC)c3)cc3nccn23)c(O)c1 [Example 11-93]
2000 to 10000	CCCCOc1ccc(Nc2nc(-c3ccc(OC)c(OC)c3)cc3nccn23)cc1 [Example 11-94]
< 500	COc1ccc(-c2cc3nccn3c(Nc3ccc(OC(F)(F)F)cc3)n2)cc1OC [Example 11-95]
< 500	COc1ccc(Nc2nc(-c3ccc(OC)c(OC)c3)cc3nccn23)c(C(N)=O)c1 [Example 11-96]
< 500	COc1ccc(-c2cc3nccn3c(Nc3ccc(Br)cc3C(N)=O)n2)cc1OC [Example 11-97]
< 500	COc1ccc(-c2cc3nccn3c(Nc3ccc(OC(C)C)cc3)n2)cc1OC [Example 11-98]
< 500	CNC(=O)c1ccccc1Nc1nc(-c2ccc(OC)c(OC)c2)cc2nccn12 [Example 11-99]
< 500	COc1ccc(Nc2nc(-c3ccc(OC)c(OC)c3)cc3nccn23)cc1F [Example 11-100]

IC50 [nM]	SMILES
< 500	COc1ccc(-c2cc3ncnn3c(Nc3ccc(CCC(=O)O)cc3C(N)=O)n2)cc1OC [Example 11-101]
< 500	COc1ccc(-c2cc3ncnn3c(Nc3ccccc3C(N)=O)n2)cc1OC [Example 11-102]
< 500	COc1ccc(-c2cc3ncnn3c(Nc3ccc4cn[nH]c4c3)n2)cc1OC [Example 11-103]
< 500	COc1ccc(-c2cc3nccn3c(Nc3ccc(CCC(=O)O)cc3C(N)=O)n2)cc1OC [Example 11-104]
< 500	COc1ccc(-c2cc3nccn3c(Nc3ccc(CCCC(=O)O)cc3C(N)=O)n2)cc1OC [Example 11-105]
< 500	COc1ccc(-c2cc3ncnn3c(Nc3ccc(CCCC(=O)O)cc3C(N)=O)n2)cc1OC [Example 11-106]
< 500	COc1ccc(-c2cc3nccn3c(Nc3cc([N+](=O)[O-])ccc3C(N)=O)n2)cc1OC [Example 11-109]
< 500	COc1ccc(-c2cc3nccn3c(Nc3ccc(S(=O)(=O)NC(=N)N)cc3)n2)cc1OC [Example 11-110]
2000 to 10000	COc1ccc(Nc2nc(-c3ccc(OC)c(OC)c3)cc3nccn23)cc1NCCN1CCOCC1 [Example 11-111]
500 to 2000	COc1ccc(Nc2nc(-c3ccc(OC)c(OC)c3)cc3nccn23)cc1NCCN(C)CCO [Example 11-112]
< 500	COc1ccc(-c2cc3nccn3c(Nc3ccccc3S(N)(=O)=O)n2)cc1OC [Example 11-113]
< 500	COc1ccc(-c2cc3nccn3c(Nc3cccc(S(N)(=O)=O)c3)n2)cc1OC [Example 11-114]
< 500	COc1ccc(-c2cc3nccn3c(Nc3ccc(S(=O)(=O)N4CCCC4)cc3)n2)cc1OC [Example 11-115]
< 500	COc1ccc(-c2cc3nccn3c(Nc3ccc(S(=O)(=O)N4CCOCC4)cc3)n2)cc1OC [Example 11-116]
< 500	COc1ccc(-c2cc3nccn3c(Nc3ccc4c(c3)n(C)c(=O)n4C)n2)cc1OC [Example 11-117]
< 500	COc1ccc(-c2cc3nccn3c(Nc3ccc4c(c3)[nH]c(=O)n4C)n2)cc1OC [Example 11-118]
< 500	COc1ccc(-c2cc3nccn3c(Nc3ccccc3S(C)(=O)=O)n2)cc1OC [Example 11-119]
< 500	COc1ccc(-c2cc3nccn3c(Nc3cccc(S(C)(=O)=O)c3)n2)cc1OC [Example 11-120]
500 to 2000	COc1ccc(-c2cc3nccn3c(Nc3ccccc3C#N)n2)cc1OC [Example 11-121]
< 500	CNS(=O)(=O)c1ccccc1Nc1nc(-c2ccc(OC)c(OC)c2)cc2nccn12 [Example 11-122]
< 500	COc1ccc(-c2cc3nccn3c(Nc3ccccc3S(=O)(=O)N(C)C)n2)cc1OC [Example 11-123]
< 500	COc1ccc(-c2cc3nccn3c(Nc3cccc(N)c3)n2)cc1OC [Example 11-124]
500 to 2000	COC(=O)CCCc1ccc(N(C)c2nc(-c3ccc(OC)c(OC)c3)cc3nccn23)cc1 [Example 11-125]
< 500	COc1ccc(-c2cc3nccn3c(Nc3ccc(S(C)(=O)=O)cc3)n2)cc1OC [Example 11-127]
< 500	COc1ccc(-c2cc3nccn3c(Nc3ccc(C(N)=O)c(N)c3)n2)cc1OC [Example 11-129]
< 500	COc1ccc(-c2cc3nccn3c(Nc3cc(N)ccc3C(N)=O)n2)cc1OC [Example 11]

From patent US6911443B2 (Bayer Aktiengesellschaft, priority 2000, dated 2005)
